One series is described as follows: MTT cytotoxicity assay. Format: cell-based. Conditions: human, L-02 normal liver cells, L-02 cells. The protocol:
The human liver L-02 cells were obtained from the biology laboratory in Key Laboratory of Chemistry for Natural Products of Guizhou Province and Chinese Academy of Sciences (Guiyang, China). The cells were grown in Dulbecco’s Modified Eagle’s Medium (supplemented with 10% (v/v) FBS, 100 U/mL penicillin, and 100 μg/mL streptomycin) at 37 °C in a CO2 incubator (5% CO2 and 95% air, 95% humidity). The effect of some compounds on cell viability was determined with the MTT assay according to the previously published literature. A total of 5000 cells were inoculated in a 96-well plate and three wells of each concentration of test compound were used. A total of 24 h after inoculation, the cells had grown to ~60% confluency, and different concentrations of compounds were added, and then the cells were cultured for 48 h. DMSO was used as the control. A total of 20 μL of MTT solution was added to each well and incubated at 37 °C for 4 h. Formazan crystals were dissolved in 150 μL of DMSO and quantified using a microplate reader (Thermo Scientific, Vario Skan Flash, Shanghai Bio-Gene Technology Co., LTD, Shanghai, China) at 490 nm. The cytotoxicity was calculated according to following formula:Cytotoxicity (%) = [(OCK − OT)/OCK] × 100%(2) where OCK represents the optical density (OD) value of the blank control group, and OT represents the OD value of experimental group.

Another series relates to C. elegans. The experiment in a line: microbe, parasite or virus in culture. Conditions: 48 h; for mortality at 50 µg/mL / mortality at 200 µg/mL: Caenorhabditis elegans, read-out: Corrected Mortality Rate ± SD (%) C. elegans. The source says:
(§1) M. incognita (parasitic on tomato plants), A. besseyi (potato dextrose agar–Botrytis cinerea breeding), B. xylophilus (potato dextrose agar–Botrytis cinerea breeding), and C. elegans (nematode growth medium–inactivated Escherichia coli OP50 cultivation) were provided by the Fine Chemical Research and Development Center of Guizhou University (Guizhou, China). The methodology used for the nematocidal bioassays of these target compounds was modified in the light of the conventional methods reported in the previously published literature. The nematicidal activity of the target compounds against four nematodes was determined using 48-well biochemical culture dishes. All of the compounds were dissolved with 100 μL DMF and were diluted with 1% Tween-80 to obtain 200 and 50 μg/mL concentrations for the bioassays. Fosthiazate and tioxazafen were used as positive controls at the same concentrations, and a negative control group was prepared without compounds using the same methodology. An amount of 10 µL of nematode suspension (about 50 nematodes) and 300 µL of the trial solution were added to corresponding hole, and each treatment was set to three repetitions. All of the 48-well plates were placed in a biochemical incubator at 27 °C for dark light culture. […] Corrected mortality (%) = [(mortality of treatment % − mortality of negative control %)/(1 − mortality of negative control %)] × 100%(3)

Another series relates to A. besseyi. The experiment in a line: microbe, parasite or virus in culture. Conditions: Aphelenchoides besseyi, 48 h, read-out: Corrected Mortality Rate ± SD (%) A. besseyi.
Text: as §1

In another series the test system is B. xylophilus. The series can be described thus: microbe, parasite or virus in culture. Conditions: Bursaphelenchus xylophilus, 48 h, read-out: Corrected Mortality Rate ± SD (%) B. xylophilus.
Text: as §1

The subject of the next series is M. incognita. The experiment in a line: microbe, parasite or virus in culture. Conditions: Meloidogyne incognita, 48 h, read-out: Corrected Mortality Rate ± SD (%) M. incognita.
Text: as §1

The next series relates to B. cinerea. The experiment in a line: In vitro mycelium growth inhibition test. Format: cell-based. The following applies: Botrytis cinerea; 50 μg/mL; mycelial growth; mean ± SD of three replicates; read-out: Inhibition Rate (%) B. cinerea. How it is done:
(§2) B. cinerea and S. scleotiorum were kindly provided by the Department of Pesticides, College of Plant Protection, Nanjing Agricultural University (Nanjing, China). All compounds were evaluated for mycelium growth inhibition tests against the two plant pathogenic fungi mentioned in previous reports. These two fungi were inoculated on potato dextrose agar (PDA) plates and were grown in biochemical incubators at 25 ± 1 °C for 2–4 days. The new mycelium was used to determine the antifungal activity. The target compounds were dissolved in 100 µL DMF, and they were then added into the PDA media to make the concentration 50 µg/mL. Mycelia dishes of about 5 mm in diameter were cut from the culture medium. Mycelium were picked up with a sterile inoculation needle, and the sample was inoculated in the middle of a PDA plate in a sterile environment. Afterwards, a preliminary screening of fungal activity was performed. […] Each test was carried out three times. The radial growth of the fungal colonies was gauged and recorded when the diameters of the blank control mycelia reached 5.0–5.5 cm. […] The final data were analyzed using SPSS v.25.0 (IBM, New York, NY, USA). The following formula was used to calculate the fungi inhibition rate. Inhibition rate (%) = [(Mycelium diameter of negative control − Mycelium diameter of treatment)/(Mycelium diameter of negative control − 0.5)] × 100%(1)

In a further series the test system is S. sclerotiorum. The series can be described thus: In vitro mycelium growth inhibition test. The format is cell-based. The following applies: Sclerotinia sclerotiorum, mycelial growth, mean ± SD of three replicates; for inhibition at 50 µg/mL: 50 μg/mL, read-out: Inhibition Rate (%) S. sclerotiorum; for EC50: read-out: EC50 against S. sclerotiorum. The protocol: as §2

≈ marks a conversion by molar mass, not a printed value.

For orientation: mortality means the percentage killed. By inhibition is commonly meant the relative decrease from the control value, in per cent. What is called EC50 is the concentration giving half of the maximal effect. In “MTT cytotoxicity assay”, `O=C(NCCc1ccccn1)c1nc(-c2ccccc2)no1` [Compound F1, 3-Phenyl-N-(2-(pyridin-2-yl)ethyl)-1,2,4-oxadiazole-5-carboxamide] came in with a cytotoxicity at 48 h, 50 μg/mL of 4.7 ± 4.9%; a cytotoxicity at 48 h, 100 μg/mL of 10.9 ± 5.9%; a cytotoxicity at 48 h, 200 μg/mL of 15.4 ± 4.4%. Further, in the series on C. elegans, the mortality at 50 µg/mL was found to be 51.3 ± 2.2% and the mortality at 200 µg/mL was found to be 88.7 ± 1.3%. Besides, in the series with A. besseyi, the mortality at 50 µg/mL came out at 0% and the mortality at 200 µg/mL was found to be 6.9 ± 1.2%. In addition, in the series with B. xylophilus, the mortality at 50 µg/mL turned out to be 0% and the mortality at 200 µg/mL was 6.1 ± 1.1%. For the same compound, in the series on M. incognita, the mortality at 50 µg/mL is 6.9 ± 2.1% and the mortality at 200 µg/mL worked out at 43.5 ± 2.3%. For the same compound, the inhibition at 50 µg/mL in the series on B. cinerea came out at 24.2 ± 0.2%. In the series on S. sclerotiorum, the inhibition at 50 µg/mL was 73.2 ± 0.1% and the EC50 turned out to be 20.8 ± 0.8 µg/mL (≈ 70.7 µM).

Compound `O=C(NCc1ccc(F)cc1F)c1nc(-c2ccccc2)no1` [Compound F3, N -(2,4-difluorobenzyl)-3-phenyl-1,2,4-oxadiazole-5-carboxamide] had a cytotoxicity at 48 h, 50 μg/mL in “MTT cytotoxicity assay” of 7.5 ± 3.8%. Moreover, the cytotoxicity at 48 h, 100 μg/mL in the series “MTT cytotoxicity assay” is 17 ± 1.4%. Besides, the cytotoxicity at 48 h, 200 μg/mL in “MTT cytotoxicity assay” was determined as 50.8 ± 3.9%. The “Corrected Mortality Rate ± SD (%) C. elegans” value in the series with C. elegans (50 µg/mL) and with C. elegans (200 µg/mL) was 100.0% throughout. Also, the mortality at 50 µg/mL in the series with C. elegans was 100%; in the series with A. besseyi, 0%; with B. xylophilus, 0%; with M. incognita, 13.9 ± 2.1%. Moreover, the mortality at 200 µg/mL stood at 100% with C. elegans, 20.1 ± 1.3% in the series with A. besseyi, 26.1 ± 1.2% in the series with B. xylophilus and 54.9 ± 3.3% with M. incognita. Further, the inhibition at 50 µg/mL with B. cinerea is 56.8 ± 0.1%; with S. sclerotiorum it was 84.8 ± 0.6%. Besides, the concentration for a half-maximal effect (EC50) with S. sclerotiorum worked out at 5.4 ± 0.3 µg/mL (≈ 17.1 µM).

With `O=C(NCCc1ccccn1)c1nc(-c2ccc(Br)nc2)no1` [Compound F17], the mortality at 50 µg/mL with C. elegans was found to be 54.2 ± 3.1%; in the series on A. besseyi, 0%; with B. xylophilus, 0%; in the series on M. incognita, 0%. Moreover, the mortality at 200 µg/mL in the series with C. elegans is 89.7 ± 1.5%; in the series on A. besseyi it was 20.2 ± 1.2%; in the series with B. xylophilus, 14.1 ± 1.9%; with M. incognita, 33.5 ± 1.4%. The results for the inhibition at 50 µg/mL in the series on B. cinerea and with S. sclerotiorum were 27.6 ± 1.4% and 10.1 ± 1.2%, respectively.

`O=C(NCCc1ncc(C(F)(F)F)cc1Cl)c1nc(-c2ccc(Br)nc2)no1` [Compound F18]: the mortality at 50 µg/mL was determined as 53.6 ± 2.4% in the series with C. elegans, 0% in the series with A. besseyi, 0% in the series with B. xylophilus and 0% with M. incognita. Further, the mortality at 200 µg/mL was determined as 90 ± 2.7% in the series on C. elegans, 23 ± 2.3% in the series with A. besseyi, 15.1 ± 1.2% in the series on B. xylophilus and 36.7 ± 2.1% in the series with M. incognita. Besides, the inhibition at 50 µg/mL in the series on B. cinerea stood at 55.9 ± 1.3%; in the series with S. sclerotiorum, 34.9 ± 1.1%.

For the compound `O=C(NCc1ccc(F)cc1F)c1nc(-c2ccc(Br)nc2)no1` [Compound F19], the mortality at 50 µg/mL worked out at 64.1 ± 1.2% with C. elegans, 0% with A. besseyi, 0% with B. xylophilus and 7.9 ± 1.2% with M. incognita. Further, the mortality at 200 µg/mL was found to be 93.5 ± 2.6% in the series on C. elegans, 23.5 ± 2.6% with A. besseyi, 30.7 ± 1.1% with B. xylophilus and 30.7 ± 1.1% in the series with M. incognita. Moreover, the inhibition at 50 µg/mL came out at 42.2 ± 0.2% in the series on B. cinerea and 35.8 ± 0.8% in the series with S. sclerotiorum.

Regarding `O=C(Nc1ccc(Cl)cc1Cl)c1nc(-c2ccc(Br)nc2)no1` [Compound F20], the mortality at 50 µg/mL stood at 81.4 ± 1.5% with C. elegans, 0% in the series with A. besseyi, 0% with B. xylophilus and 8.6 ± 2.2% in the series with M. incognita. Also, the mortality at 200 µg/mL in the series with C. elegans was 100%; in the series on A. besseyi, 26.4 ± 2.5%; in the series on B. xylophilus it was 41.2 ± 1.3%; with M. incognita, 41.2 ± 1.3%. Further, the inhibition at 50 µg/mL in the series with B. cinerea worked out at 55.8 ± 0.1%; with S. sclerotiorum, 13.8 ± 0.5%.

Regarding `O=C(NCCc1ccccn1)c1nc(-c2ncc(C(F)(F)F)cc2Cl)no1` [Compound F21], the mortality at 50 µg/mL amounted to 32.5 ± 2% in the series with C. elegans, 0% in the series with A. besseyi, 0% in the series on B. xylophilus and 0% with M. incognita. Further, the mortality at 200 µg/mL in the series with C. elegans was 76.8 ± 0.9%; in the series on A. besseyi, 13 ± 0.5%; with B. xylophilus it was 7.1 ± 1.9%; in the series on M. incognita, 23.5 ± 2.4%. For the same compound, the inhibition at 50 µg/mL with B. cinerea came out at 38.8 ± 0.7%; in the series on S. sclerotiorum, 35.1 ± 0.1%.

`O=C(NCCc1ncc(C(F)(F)F)cc1Cl)c1nc(-c2ncc(C(F)(F)F)cc2Cl)no1` [Compound F22]: the mortality at 50 µg/mL in the series with C. elegans was 45.7 ± 2.3%; in the series on A. besseyi it was 0%; in the series on B. xylophilus, 0%; with M. incognita it was 0%. The mortality at 200 µg/mL was 80.2 ± 1.5% in the series with C. elegans, 26.5 ± 2.1% in the series with A. besseyi, 17.1 ± 2.2% in the series with B. xylophilus and 18.3 ± 1.7% in the series with M. incognita. Besides, the figures for the inhibition at 50 µg/mL with B. cinerea and with S. sclerotiorum were 45.2 ± 0.9% and 37.6 ± 1.9%, respectively.

`O=C(NCc1ccc(F)cc1F)c1nc(-c2ncc(C(F)(F)F)cc2Cl)no1` [Compound F23]: the mortality at 50 µg/mL in the series on C. elegans is 10.6 ± 1.2%; in the series with A. besseyi, 0%; in the series on B. xylophilus, 0%; with M. incognita, 0%. Moreover, the mortality at 200 µg/mL in the series with C. elegans came to 27.6 ± 1.2%; in the series on A. besseyi, 21.5 ± 2.2%; with B. xylophilus it was 20.3 ± 1.4%; with M. incognita, 19.1 ± 2.2%. The inhibition at 50 µg/mL with B. cinerea worked out at 41.5 ± 0.5%; in the series with S. sclerotiorum, 34.6 ± 0.1%.

As to `O=C(Nc1ccc(Cl)cc1Cl)c1nc(-c2ncc(C(F)(F)F)cc2Cl)no1` [Compound F24], the mortality at 50 µg/mL is 9.6 ± 1.1% with C. elegans, 0% in the series on A. besseyi, 0% in the series on B. xylophilus and 0% in the series on M. incognita. Moreover, the mortality at 200 µg/mL with C. elegans turned out to be 24.6 ± 1.4%; with A. besseyi, 23.4 ± 1.6%; in the series on B. xylophilus, 21.2 ± 1.5%; with M. incognita, 18.5 ± 1.1%. The inhibition at 50 µg/mL in the series with B. cinerea turned out to be 38.5 ± 0.5%; in the series with S. sclerotiorum it was 1.8 ± 0.8%.

In the series “MTT cytotoxicity assay”, `Cc1nc(C(F)(F)F)c(C(=O)Nc2c(Br)cc(OC(F)(F)F)cc2Br)s1` [Thifluzamide, thifluzamide, reference compound] registered a cytotoxicity at 48 h, 50 μg/mL of 33.3 ± 1.8%; a cytotoxicity at 48 h, 100 μg/mL of 33.7 ± 0.4%; a cytotoxicity at 48 h, 200 μg/mL of 33.9 ± 1.5%. Besides, the inhibition at 50 µg/mL in the series on B. cinerea came to 80.3 ± 0.2%. In the series with S. sclerotiorum, the inhibition at 50 µg/mL turned out to be 86.7 ± 0.3% and the concentration for a half-maximal effect (EC50) came out at 4.3 ± 1.7 µg/mL (≈ 8.14 µM).

The values are drawn from article PMC8836147, “Design, Synthesis and Antifungal/Nematicidal Activity of Novel 1,2,4-Oxadiazole Derivatives Containing Amide Fragments” (International Journal of Molecular Sciences, 2022).
